# Laboratory results from PubChem BioAssay AID328 (DTP/NCI, 2004).
# Several values for one entry are separate records, joined by “and”; a condition that tells them apart may be missing. Equal values may be shown once. Toxic doses and inconclusive results are not listed.
# Tested on: BDF1 mice, P388 leukemia ip, median survival T/C
# Experiment: NCI In Vivo Anticancer Drug Screen. Data for tumor model P388 Leukemia (intraperitoneal) in B6D2F1 (BDF1) mice
# Details: endpoint: median survival time, higher = longer survival
# Outline: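 Survival ratio, drug arm over vehicle arm, in mice with a transplanted tumour.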
# [1] = dose: 50.0 mg/kg/injection, schedule: Q01DX009 (ip), vehicle: Klucel (hydroxypropylcellulose) (HPC)
# [2] = dose: 100.0 mg/kg/injection, schedule: Q01DX009 (ip), vehicle: Klucel (hydroxypropylcellulose) (HPC)
# [3] = dose: 100.0 mg/kg/injection, schedule: Q04DX003 (ip), vehicle: Klucel (hydroxypropylcellulose) (HPC)
# [4] = dose: 200.0 mg/kg/injection, schedule: Q04DX003 (ip), vehicle: Klucel (hydroxypropylcellulose) (HPC)
# [5] = dose: 100.0 mg/kg/injection, schedule: Q04DX003 (ip), vehicle: saline with Tween-80
# [6] = dose: 50.0 mg/kg/injection, schedule: Q01DX009 (ip), vehicle: saline
# [7] = dose: 100.0 mg/kg/injection, schedule: Q01DX009 (ip), vehicle: saline
# [8] = dose: 100.0 mg/kg/injection, schedule: Q04DX003 (ip), vehicle: saline
# [9] = dose: 200.0 mg/kg/injection, schedule: Q01DX009 (ip), vehicle: saline
# [10] = dose: 200.0 mg/kg/injection, schedule: Q04DX003 (ip), vehicle: saline
# [11] = dose: 200.0 mg/kg/injection, schedule: Q04DX003 (ip), vehicle: saline with Tween-80
# [12] = dose: 400.0 mg/kg/injection, schedule: Q04DX003 (ip), vehicle: saline with Tween-80
smiles,measurement,setting,value
O=[N+]([O-])c1ccc(C2OC2c2ccccc2)cc1 (stereo unspecified),T/C,[1],122 % of control
same,T/C,[2],111 % of control
same,T/C,[3],95 % of control and 120 % of control
same,T/C,"dose: 200.0 mg/kg/injection, schedule: Q01DX009 (ip), vehicle: Klucel (hydroxypropylcellulose) (HPC)",111 % of control
same,T/C,[4],110 % of control
same,T/C,"dose: 400.0 mg/kg/injection, schedule: Q04DX003 (ip), vehicle: Klucel (hydroxypropylcellulose) (HPC)",91 % of control and 110 % of control
CCO/C=C1\SC(=S)N(c2cccc(OC)c2)C1=O,T/C,[5],122 % of control
NN1CCCC1,T/C,"dose: 25.0 mg/kg/injection, schedule: Q01DX009 (ip), vehicle: saline",100 % of control
same,T/C,[6],100 % of control
same,T/C,[7],86 % of control and 90 % of control and 100 % of control
same,T/C,[8],104 % of control
same,T/C,[9],100 % of control
same,T/C,[10],113 % of control
CC(=O)c1ccc(NC(=O)C(F)(F)F)cc1,T/C,"dose: 50.0 mg/kg/injection, schedule: Q04DX003 (ip), vehicle: saline with Tween-80",111 % of control
same,T/C,[5],96 % of control
same,T/C,[11],103 % of control
same,T/C,[12],103 % of control
c1csc(C[N+]23CN4CN(CN(C4)C2)C3)c1,T/C,[7],116 % of control
COc1ccc(/C(C)=C\C(=O)O)cc1,T/C,[5],100 % of control
same,T/C,[11],100 % of control
same,T/C,[12],95 % of control
CC(NC(=O)OCc1ccccc1)C(=O)NCCN(C)C (stereo unspecified),T/C,"dose: 50.0 mg/kg/injection, schedule: Q01DX005 (ip), vehicle: saline",100 % of control
same,T/C,"dose: 100.0 mg/kg/injection, schedule: Q01DX005 (ip), vehicle: saline",91 % of control
same,T/C,"dose: 200.0 mg/kg/injection, schedule: Q01DX005 (ip), vehicle: saline",100 % of control
CCCc1nc2c(OC)ccc(OC)c2nc1C,T/C,"dose: 25.0 mg/kg/injection, schedule: Q01DX009 (ip), vehicle: Klucel (hydroxypropylcellulose) (HPC)",100 % of control
same,T/C,[1],100 % of control
same,T/C,[2],100 % of control
same,T/C,"dose: 150.0 mg/kg/injection, schedule: Q01DX009 (ip), vehicle: Klucel (hydroxypropylcellulose) (HPC)",90 % of control
CC(C)CCCC(C)C1CCC2C3C(=O)C=C4CC(O)CCC4(C)C3CCC12C (stereo unspecified),T/C,"dose: 100.0 mg/kg/injection, schedule: Q04DX003 (sc), vehicle: steriod suspending solution",109 % of control
same,T/C,"dose: 200.0 mg/kg/injection, schedule: Q04DX003 (sc), vehicle: steriod suspending solution",104 % of control
same,T/C,"dose: 400.0 mg/kg/injection, schedule: Q04DX003 (sc), vehicle: steriod suspending solution",109 % of control
Cc1ccc(Nc2nc(N)nc(N)c2N)cc1Cl,T/C,"dose: 33.0 mg/kg/injection, schedule: Q01DX009 (ip), vehicle: saline with Tween-80",120 % of control
C=C1C(=O)OC2C=C(C)CC3C=C(CCC=C(C)CCC12)C(=O)O3 (stereo unspecified),T/C,"dose: 10.0 mg/kg/injection, schedule: Q01DX009 (ip), vehicle: saline",88 % of control
same,T/C,"dose: 30.0 mg/kg/injection, schedule: Q01DX009 (ip), vehicle: saline",105 % of control
same,T/C,"dose: 40.0 mg/kg/injection, schedule: Q01DX009 (ip), vehicle: saline",94 % of control
same,T/C,"dose: 60.0 mg/kg/injection, schedule: Q01DX009 (ip), vehicle: saline",120 % of control
same,T/C,"dose: 120.0 mg/kg/injection, schedule: Q01DX009 (ip), vehicle: saline",112 % of control
COc1ccc2c(c1OC)C(=O)NC2=O,T/C,"dose: 50.0 mg/kg/injection, schedule: Q01DX008 (ip), vehicle: Klucel (hydroxypropylcellulose) (HPC)",108 % of control
same,T/C,"dose: 50.0 mg/kg/injection, schedule: Q04DX003 (ip), vehicle: Klucel (hydroxypropylcellulose) (HPC)",100 % of control
same,T/C,"dose: 100.0 mg/kg/injection, schedule: Q01DX008 (ip), vehicle: Klucel (hydroxypropylcellulose) (HPC)",88 % of control
same,T/C,[3],100 % of control
same,T/C,[4],90 % of control
CCOC(=O)c1ccc(NC(=O)Nc2nc(C)cs2)cc1,T/C,"dose: 25.0 mg/kg/injection, schedule: Q01DX009 (ip), vehicle: other",103 % of control
same,T/C,"dose: 100.0 mg/kg/injection, schedule: Q01DX009 (ip), vehicle: other",99 % of control
COc1cc2c(c(OC)c1OC)-c1cc3c(cc1C(=O)[C@@H]1COC(=O)[C@@H]21)OCO3,T/C,"dose: 1.3 mg/kg/injection, schedule: Q01DX009 (ip), vehicle: saline",109 % of control
same,T/C,"dose: 2.0 mg/kg/injection, schedule: Q01DX009 (ip), vehicle: saline",95 % of control
same,T/C,"dose: 3.0 mg/kg/injection, schedule: Q01DX009 (ip), vehicle: saline",95 % of control
same,T/C,"dose: 5.3 mg/kg/injection, schedule: Q01DX009 (ip), vehicle: saline with Tween-80",100 % of control
same,T/C,"dose: 8.0 mg/kg/injection, schedule: Q01DX009 (ip), vehicle: saline with Tween-80",100 % of control
same,T/C,"dose: 12.0 mg/kg/injection, schedule: Q01DX009 (ip), vehicle: saline with Tween-80",95 % of control
same,T/C,"dose: 21.4 mg/kg/injection, schedule: Q01DX009 (ip), vehicle: saline",105 % of control
same,T/C,"dose: 32.0 mg/kg/injection, schedule: Q01DX009 (ip), vehicle: saline",110 % of control
same,T/C,"dose: 48.0 mg/kg/injection, schedule: Q01DX009 (ip), vehicle: saline",110 % of control
C=CCC(CC)C(=O)Cl (stereo unspecified),T/C,"dose: 100.0 mg/kg/injection, schedule: Q01DX009 (ip), vehicle: saline with Tween-80",109 % of control
same,T/C,[5],111 % of control
same,T/C,"dose: 200.0 mg/kg/injection, schedule: Q01DX009 (ip), vehicle: saline with Tween-80",100 % of control
same,T/C,[11],110 % of control
same,T/C,"dose: 400.0 mg/kg/injection, schedule: Q01DX009 (ip), vehicle: saline with Tween-80",100 % of control
same,T/C,[12],105 % of control and 110 % of control
NC(=S)NCCO,T/C,"dose: 100.0 mg/kg/injection, schedule: Q01DX001 (ip), vehicle: saline",104 % of control
same,T/C,"dose: 200.0 mg/kg/injection, schedule: Q01DX001 (ip), vehicle: saline",95 % of control
same,T/C,"dose: 400.0 mg/kg/injection, schedule: Q01DX001 (ip), vehicle: saline",100 % of control
O=[N+]([O-])c1ccc(N(CCO)CCO)c2c1no[n+]2[O-],T/C,"dose: 7.5 mg/kg/injection, schedule: Q01DX009 (ip), vehicle: saline with Tween-80",112 % of control
same,T/C,"dose: 15.0 mg/kg/injection, schedule: Q01DX009 (ip), vehicle: saline with Tween-80",112 % of control
same,T/C,"dose: 30.0 mg/kg/injection, schedule: Q01DX009 (ip), vehicle: saline with Tween-80",113 % of control
same,T/C,"dose: 32.0 mg/kg/injection, schedule: Q04DX003 (ip), vehicle: saline with Tween-80",160 % of control
same,T/C,"dose: 64.0 mg/kg/injection, schedule: Q04DX003 (ip), vehicle: saline with Tween-80",121 % of control
CN(N=O)C(=O)Nc1ccc(C(=O)O)cc1,T/C,"dose: 29.0 mg/kg/injection, schedule: Q04DX003 (ip), vehicle: saline with Tween-80",159 % of control
same,T/C,"dose: 45.0 mg/kg/injection, schedule: Q04DX003 (ip), vehicle: saline with Tween-80",163 % of control
same,T/C,"dose: 66.0 mg/kg/injection, schedule: Q04DX003 (ip), vehicle: saline with Tween-80",170 % of control
same,T/C,[5],250 % of control
same,T/C,"dose: 150.0 mg/kg/injection, schedule: Q04DX003 (ip), vehicle: saline with Tween-80",240 % of control
CCOC(=O)CC(C)=O.[Cu+2],T/C,"dose: 6.25 mg/kg/injection, schedule: Q01DX009 (ip), vehicle: Klucel (hydroxypropylcellulose) (HPC)",100 % of control
same,T/C,"dose: 12.5 mg/kg/injection, schedule: Q01DX009 (ip), vehicle: Klucel (hydroxypropylcellulose) (HPC)",90 % of control
ClC(Cl)(Cl)c1cccc(C(Cl)(Cl)Cl)c1,T/C,[3],115 % of control
same,T/C,[4],120 % of control
same,T/C,"dose: 266.0 mg/kg/injection, schedule: Q04DX003 (ip), vehicle: Klucel (hydroxypropylcellulose) (HPC)",90 % of control
FC(F)(Cl)c1nc2nc(Cl)c(Cl)nc2[nH]1,T/C,"dose: 266.0 mg/kg/injection, schedule: Q04DX003 (ip), vehicle: other",100 % of control
same,T/C,"dose: 400.0 mg/kg/injection, schedule: Q04DX003 (ip), vehicle: other",108 % of control
same,T/C,"dose: 600.0 mg/kg/injection, schedule: Q04DX003 (ip), vehicle: other",108 % of control
CCCCCC(C)(C)O,T/C,[6],95 % of control
same,T/C,[7],104 % of control
same,T/C,[8],112 % of control
same,T/C,[9],104 % of control
same,T/C,[10],100 % of control
CCCCNC(C)(C)C(SS)c1ccc(C(F)(F)F)cc1 (stereo unspecified),T/C,"dose: 6.25 mg/kg/injection, schedule: Q04DX003 (ip), vehicle: other",100 % of control
same,T/C,"dose: 12.5 mg/kg/injection, schedule: Q04DX003 (ip), vehicle: other",105 % of control
same,T/C,"dose: 25.0 mg/kg/injection, schedule: Q04DX003 (ip), vehicle: other",110 % of control
S=c1[nH]nc2n1NC(c1ccccc1)=NN2,T/C,[5],91 % of control
same,T/C,[11],87 % of control
same,T/C,[12],95 % of control
